# Measured values reported in paper PMC5823845 (Bioorganic & Medicinal Chemistry, 2018).
# Where two headings read alike, the source gives them in different places.
# Legend:
# [1] = target: T1, mouse RAR beta receptor (Mus musculus, UniProt P22605); settings: ratio of relative EC50s RARβ/RARα
# T1 sequence (P22605 210-444 limits assumed): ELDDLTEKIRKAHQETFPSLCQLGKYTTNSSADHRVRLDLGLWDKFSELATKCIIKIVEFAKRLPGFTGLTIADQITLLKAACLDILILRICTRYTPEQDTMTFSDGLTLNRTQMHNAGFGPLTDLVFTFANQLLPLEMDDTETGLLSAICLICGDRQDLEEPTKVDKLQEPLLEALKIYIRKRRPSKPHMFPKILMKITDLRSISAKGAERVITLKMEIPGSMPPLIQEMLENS
# [2] = target: T2, mouse RAR gamma receptor (Mus musculus, UniProt P18911)
# T2 sequence (P18911 185-419 limits assumed): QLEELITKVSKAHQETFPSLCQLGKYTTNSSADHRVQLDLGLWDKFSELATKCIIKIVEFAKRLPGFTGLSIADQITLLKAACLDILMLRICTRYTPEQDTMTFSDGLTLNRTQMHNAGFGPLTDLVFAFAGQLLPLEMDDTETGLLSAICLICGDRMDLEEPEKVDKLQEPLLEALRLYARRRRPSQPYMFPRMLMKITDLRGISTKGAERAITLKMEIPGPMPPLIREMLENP
# [3] = Intrinsic clearance in liver microsomes; format: in vitro ADME; settings: 37 °C, NADPH, 45 min, mean of 5
# Protocol: The reaction is terminated by the addition of methanol. Following centrifugation, the supernatant is analyzed on the LC-MS/MS. […] The data is the mean on 5 separate experiments.
# The ln peak area ratio (compound peak area/internal standard peak area) is plotted against time and the gradient of the line determined.
# (see Supplementary data file for details).
# [4] = PK studies in rats; format: in vivo, Sprague-Dawley rats; settings: for rat pK AUC po: 10 mg/kg po, 8% Ethanol/92% PEG-400, n = 4; for rat pK Cl: iv 0.5 mg/kg; for rat pK Cl / bioavailability: n = 4; for bioavailability: male, Sprague-Dawley, rat, 10 mg/kg po vs 0.5 mg/kg iv, read-out: rat pK F%
# Protocol: The Test Items were orally administered at a dose of 10 mg/kg and a dosing volume of 10 mL/kg. […] The Test Items were intravenously administered at a dose of 0.5 mg/kg and a dosing volume of 2 mL/kg. […] Whole blood concentrations of the Test Items were measured using LC-MS/MS and selected pharmacokinetic parameters calculated using Pharsight WinNonLin software. For furthers details see Supplementary data file.
# [5] = Log D pH 7.4, octanol/buffer shake flask method
# Protocol: Briefly, octanol (pre-saturated with buffer) is added to the test compound and sonicated. Buffer at pH 7.4 (presaturated with octanol) is then added to the octanol. […] The system is mixed to allow distribution of the compound between the two phases.
# Log D = Log (Coct / Caq ). Where: Coct = Concentration in octanol sample (corrected for dilution) and Caq = Concentration in aqueous sample (corrected for dilution)
# [6] = target: T3, mouse RAR alpha receptor (Mus musculus, UniProt P11416); settings: relative to the amplitude of the normalizing ATRA output
# T3 sequence (P11416 183-417 limits assumed): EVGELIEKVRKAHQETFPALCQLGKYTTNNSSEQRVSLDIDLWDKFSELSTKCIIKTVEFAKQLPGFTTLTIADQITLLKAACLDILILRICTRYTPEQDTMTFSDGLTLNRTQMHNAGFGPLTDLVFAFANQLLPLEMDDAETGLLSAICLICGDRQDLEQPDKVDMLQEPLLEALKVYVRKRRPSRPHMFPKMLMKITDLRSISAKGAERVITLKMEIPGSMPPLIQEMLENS
# [7] = mouse, ratio of relative EC50s RARγ/RARα
# [8] = liver microsomes, human microsomes
# [9] = liver microsomes, mouse microsomes
SMILES,β/α ratio [1],"γ/α ratio [2, 7]","microsomal CLint [3, 8]","microsomal CLint [3, 9]",logD [5],also measured
"CC1(C)CCC(C)(C)c2c1cc(C(=O)Nc1cc(F)c(C(=O)O)c(F)c1)c(O)c2Cl [Compound 4, reference compound]",141,,,,,γ/α ratio [2]: 867
CCCOc1c(Cl)cc(C(=O)Nc2ccc(C(=O)O)cc2)cc1Cl [Compound 12],9.5,82,,,,
CCCCOc1c(Cl)cc(C(=O)Nc2ccc(C(=O)O)cc2)cc1Cl [Compound 13],8.5,18,,,,
CC(C)Oc1c(Cl)cc(C(=O)Nc2ccc(C(=O)O)cc2)cc1Cl [Compound 14],205,119,,,,
"O=C(O)c1ccc(NC(=O)c2cc(Cl)c(OC3CCCC3)c(Cl)c2)cc1 [Compound 15, 4-(3,5-Dichloro-4-(cyclopentyloxy)benzamido)benzoic acid]",,,26 µL/min/mg,83 µL/min/mg,2.8,rat pK AUC po [4]: 1674 ng·min mL^−1; rat pK Cl [4]: 2 mL/kg/min; bioavailability ([4]; whole blood): 0.3%
"CC(C)(C)Oc1c(Cl)cc(C(=O)Nc2ccc(C(=O)O)cc2)cc1Cl [Compound 16, 4-(4-(tert-Butoxy)-3,5-dichlorobenzamido)benzoic acid]",,,16 µL/min/mg,91 µL/min/mg,2.6,
CCOc1c(Cl)cc(C(=O)Nc2ccc(C(=O)O)c(F)c2)cc1Cl [Compound 17],80,>80,,,,
"CCOc1c(Cl)cc(C(=O)Nc2ccc(C(=O)O)c(C)c2)cc1Cl [Compound 18, 4-(3,5-Dichloro-4-ethoxybenzamido)-2-methylbenzoic acid]",,,14 µL/min/mg,38 µL/min/mg,1.7,"rat pK AUC po [4]: 74,396 ng·min mL^−1; rat pK Cl [4]: 1.6 mL/kg/min; bioavailability ([4]; whole blood): 12%"
"CCOc1c(Cl)cc(C(=O)Nc2ccc(C(=O)O)c(O)c2)cc1Cl [Compound 19, 4-(3,5-Dichloro-4-ethoxybenzamido)-2-hydroxybenzoic acid]",37,149,,,,
CCOc1c(Cl)cc(C(=O)Nc2ccc(C(=O)O)c(Cl)c2)cc1Cl [Compound 20],64,>50,,,,
CCOc1c(Cl)cc(C(=O)Nc2ccc(C(=O)O)c(C(F)(F)F)c2)cc1Cl [Compound 21],1.5,11,,,,
"CCOc1c(Cl)cc(NC(=O)c2ccc(C(=O)O)cc2)cc1Cl [Compound 26, 4-(3,5-Dichloro-4-ethoxyphenylcarbamoyl)benzoic acid]",12,>3600,,,,
"CCOc1c(OC(C)C)cc(C(=O)Nc2ccc(C(=O)O)cc2)cc1OC(C)C [Compound 31, 4-(4-Ethoxy-3,5-diisopropoxybenzamido)benzoic acid]",,,,,1.6,microsomal CLint ([3]; human microsomes): 4 µL/min/mg; microsomal CLint ([3]; mouse microsomes): 8 µL/min/mg; rat pK Cl [4]: 1 mL/kg/min; bioavailability ([4]; in vivo): 81%; RARα agonist type (partial / full agonist) [6]: partial RARα agonist
CCOc1c(OC2CCCC2)cc(C(=O)Nc2ccc(C(=O)O)cc2)cc1OC1CCCC1 [Compound 32],145,19,,,,RARα agonist type (partial / full agonist) [6]: partial agonist activity
CC(C)Oc1cc(C(=O)Nc2ccc(C(=O)O)cc2)cc(OC(C)C)c1OC(C)C [Compound 33],96,8,,,,RARα agonist type (partial / full agonist) [6]: partial agonist activity
CCOc1cc(C(=O)Nc2ccc(C(=O)O)cc2)cc(OC(C)C)c1OCC [Compound 34],84,34,,,,RARα agonist type (partial / full agonist) [6]: full RARα agonist
O=C(O)c1ccc(NC(=O)c2cc(Cl)c(OC3CCC3)c(OC3CCC3)c2)cc1 [Compound 40],22,447,,,,

SMILES,β/α ratio [1],"γ/α ratio [2, 7]","microsomal CLint [3, 8]","microsomal CLint [3, 9]",logD [5],also measured
"CC(C)(C)Oc1cc(C(=O)Nc2ccc(C(=O)O)cc2)cc(Cl)c1OC(C)(C)C [Compound 41, 4-(3,4-Di-tert-butoxy-5-chlorobenzamido)benzoic acid]",44,189,,,,
"O=C(O)c1ccc(NC(=O)c2cc(Cl)c(OC3CCCC3)c(OC3CCCC3)c2)cc1 [Compound 42, 4-[3-Chloro-4,5-bis(cyclopentyloxy)benzamido]benzoic acid]",32,336,,,,
CC(C)Oc1cc(C(=O)Nc2ccc(C(=O)O)c(F)c2)cc(Cl)c1OC(C)C [Compound 43],34,300,6.9 µL/min/mg,18.8 µL/min/mg,2,
Cc1cc(NC(=O)c2cc(Cl)c(OC(C)C)c(OC(C)C)c2)ccc1C(=O)O [Compound 44],45,2947,15 µL/min/mg,26.2 µL/min/mg,2.3,"rat pK AUC po [4]: 77,670 ng·min mL^−1; rat pK Cl [4]: 5.4 mL/kg/min; bioavailability ([4]; whole blood): 66%"
Cc1cc(NC(=O)c2cc(Cl)c(OC(C)(C)C)c(OC(C)(C)C)c2)ccc1C(=O)O [Compound 45],,128,,,2.9,microsomal CLint ([3]; human microsomes): 28.7 µL/min/mg; microsomal CLint ([3]; mouse microsomes): 36.2 µL/min/mg
"CCOc1c(Cl)cc(C(=O)Nc2ccc(C(=O)O)cc2)cc1OC(C)C [Compound 49, 4-(3-Chloro-4-ethoxy-5-isopropoxybenzamido)benzoic acid]",,,11 µL/min/mg,41 µL/min/mg,1.7,RARα agonist type (partial / full agonist) [6]: partial agonist
CCOc1cc(C(=O)Nc2ccc(C(=O)O)cc2)cc(Cl)c1OC(C)C [Compound 52],3.1,570,,,,
COc1c(Cl)cc(C(=O)Nc2ccc(C(=O)O)c(F)c2)cc1OC(C)C [Compound 53],609,"17,600",0.3 µL/min/mg,11 µL/min/mg,1,"rat pK AUC po [4]: 10,871 ng·min mL^−1; rat pK Cl [4]: 15 mL/kg/min; bioavailability ([4]; whole blood): 15%"
CCOc1c(Cl)cc(C(=O)Nc2ccc(C(=O)O)c(F)c2)cc1OC(C)C [Compound 54],487,6169,3.3 µL/min/mg,17.9 µL/min/mg,1.4,"rat pK AUC po [4]: 15,376 ng·min mL^−1; rat pK Cl [4]: 12 mL/kg/min; bioavailability ([4]; whole blood): 12%"
COc1c(Cl)cc(C(=O)Nc2ccc(C(=O)O)c(C)c2)cc1OC(C)C [Compound 55],241,509,1.5 µL/min/mg,10.6 µL/min/mg,1.3,RARα agonist type (partial / full agonist) [6]: partial RARα agonist activity
CCOc1cc(C(=O)Nc2ccc(C(=O)O)c(C)c2)cc(Cl)c1OC(C)C [Compound 57],286,1675,8.7 µL/min/mg,25.7 µL/min/mg,1.9,
CCOc1c(Cl)cc(C(=O)Nc2ccc(C(=O)O)c(C)c2)cc1OC [Compound 58],210,>250,,18.4 µL/min/mg,,
CCOc1c(Cl)cc(C(=O)Nc2ccc(C(=O)O)c(C)c2)cc1OCC1CC1 [Compound 59],58,"38,461",,42.3 µL/min/mg,,
O=C(O)c1ccc(NC(=O)c2cc(Cl)c(O)c(Cl)c2)cc1 [Compound 60],7,55,,,,
COc1c(Cl)cc(C(=O)Nc2ccc(C(=O)O)cc2)cc1Cl [Compound 61],318,195,,,,
CCOc1cc(C(=O)Nc2ccc(C(=O)O)cc2)cc(OCC)c1OCC [Compound 62],174,16,,,,
